Entries after “also recorded” stand apart in the source; their conditions may differ.
How the values were obtained:
PKA = PKA ELISA of retinal lysates after Compound 2 eye drops in diabetic rats; assay type: in vivo, rat; settings: topical 1 mM once daily for 4 days, compared with other doses (1 mM to 20 mM), hydrochloride
Method: To determine whether topical application of Compound 2 could reach the retina and elicit response, dose and time course studies were performed. For those studies, animals were made diabetic for 2 months using STZ. For 4 days, rats received a variety of doses of either Compound 2 (1 mM to 20 mM) or PBS once or twice each day. After the 4 days of eye drop treatment to both eyes, the diabetic and control animals were euthanized. Since beta-adrenergic receptor stimulation should increase cyclic adenosine monophosphase production and activate protein kinase A, retinal lysates were processed for a PKA ELISA (MesaCup PKA ELISA, Upstate, Temecula, Calif.). […] At 2 or 8 months, retinas were assessed for diabetes-induced degeneration of retinal cell numbers and retinal thickness (2 months) and for degenerate capillaries (8 months). TNF activity, cleaved caspase 3 and phosphorylation of insulin receptor beta and Akt were assessed at both time points. […]

TNFalpha = TNFalpha ELISA of retina of diabetic rats; assay type: in vivo, rat
Description: (§1) The other eye from each animal was used for protein analyses for inflammatory markers and insulin receptor signaling. Western blotting was done as described (9). Antibodies used were total insulin receptor beta (1:500, Cellular Signaling, Danvers, Mass.), phosphorylated insulin receptor beta (Tyr 1150/1151, 1:500, Cellular Signaling, Danvers, Mass.), total Akt (1:500, Cellular Signaling, Danvers, Mass.), and phosphorylated Akt (Ser 473, 1:500, Cellular Signaling, Danvers, Mass.). For analyses of the data, mean densitometry values were obtained using the Kodak 2.0 software. The ratio of phosphorylated protein was compared to levels of total protein.
(§2) To determine the TNF concentration (Pierce, Rockford Ill.) and levels of cleaved caspase 3 (Cellular Signaling, Danvers, Mass.), ELISA analyses were done according to manufacturers instructions, except that equal protein was loaded into the cleaved caspase 3 ELISA so the optical density numbers can be used.

[1] = system: electrical activity of the retina of diabetic rats; assay: Electroretinogram (ERG) analyses in diabetic rats; assay type: in vivo, rat
Method: Each month of the experiment, electroretinogram (ERG) analyses were performed on rats from the three groups. Electroretinogram analyses were done to evaluate changes in electrical activity of the retina and as a measure of drug effectiveness. For the electroretinogram analyses, rats were dark adapted overnight. The following morning, the rats were anesthetized using an intraperitoneal injection of a ketamine (0.6 ml/kg body weight) and xylazine (0.375 ml/kg body weight) cocktail. The pupil of each eye was fully dilated using a 1% tropicamide solution (Alcon). To protect the eye and assist in maintaining a good electrical connection, a drop of methylcellulose solution was added to each eye (Celluvisc; Allergan, Irvine, Calif.). Body temperature was maintained at 37° C. with a water-based heating pad. The electroretinogram responses were recorded from both eyes simultaneously using platinum wire corneal electrodes, a forehead reference electrode, and ground electrode in the tail. The electroretinogram stimuli were delivered via the Diagnosys LLC system. All animals tested recovered from anesthesia after the electroretinogram recording sessions. No animals with gross cataract were used for electroretinogram analyses.
Electroretinogram responses were recorded in response to brief (4 ms) white LED and then from the Xenon arc lamp delivered at 2.1-second intervals for dim stimuli and 35 second frames for brighter stimuli. The range of stimulus intensities extended from −4.0 to 1.0 log cd*s/m2 for analysis of the b-wave amplitudes. Electroretinogram waveforms were recorded with a bandwidth of 0.3-500 Hz and sampled at 2 kHz by a digital acquisition system (Diagnosys) and were analyzed using MatLab (The MathWorks, Natick, Mass.). […]
For assessment of the oscillatory potentials, stimuli were administered at 3 log (cd*s/m2). Data analysis for the oscillatory potentials was obtained using MatLab software with a digital band-pass filter set for 60-300 Hz and the peak wavelets of the 4 wavelets were measured from trough to peak. […]

cleaved caspase 3 = assay: Cleaved caspase 3 ELISA of retinal lysates of diabetic rats; assay type: in vivo, rat; settings: Compound 2 eye drops
Description: as §2

[2] = Vitreous humor levels of Compound 2 after topical administration to rats; assay type: in vivo; settings: rat, 10 mg/kg
Method: For data analyses B/PK parameters were derived from the obtained plasma, vitreous humor, urine and feces concentration data by standard non-compartmental analysis. Terminal half-life was determined as the ratio of ln 2 divided by λz, the negative of the slope of the linear regression of the natural log concentration vs. time profile during the terminal phase. Systemic and ocular exposure was determined as plasma or ocular area under the concentration-time curve (AUC) using the trapezoidal rule. Compound 2 concentration determination and metabolite profiling is conducted using a validated LC/MS/MS assay based on the methodology described (14-15). The LC-MS/MS system comprises a Shimadzu HPLC system (Kyoto, Japan), API-4000 Q Trap tandem mass spectrometer (Foster City, Calif., USA) equipped with a turbo ion-spray and a HTC-PAL autosampler (Leap Technologies, Carrboro, N.C., USA).

Akt (Ser 473) = assay: Western blot of phosphorylated Akt to total Akt in rat retina; assay type: in vivo; settings: diabetic rats, daily 1 mM, retinal lysates
Description: as §1

COc1cc(CCNC[C@H](O)c2ccc(O)c(O)c2)cc(OC)c1OC.Cl (single isomer, unassigned) [Compound 2, 4-[1-hydroxy-2-(1-ethylamino-3-,4-,5-trimethoxyphenyl)ethyl]benzene-1,2-diol hydrochloride]
PKA activity in the retina (PKA): showed the highest increase in PKA activity; also recorded: significantly increased PKA activity in the retina
TNFalpha levels in retina, 8 months (TNFalpha; 1 mM eye drops, 8 months): levels similar to Ctrl rats
TNFα concentration throughout the treatment regimen (TNFalpha; eye drop therapy): effective in reducing TNFα concentration throughout the treatment regimen
retinal function (ERG), delayed treatment ([1]; 6 month diabetic rats receiving Compound 2 therapy for 2 months): had improved retinal function
B-wave amplitude ([1]; daily topical 1 mM from one week after STZ, ERG after 6 weeks): inhibited the loss of B-wave amplitude
ERG amplitudes (a-wave, b-wave, oscillatory potentials) ([1]; diabetic rats, topical 1 mM daily from onset, over 8 months, hydrochloride): inhibited the loss of amplitude of B-wave and oscillatory potentials; also recorded: can inhibit the loss of all three components of the ERG over the entire 8-month period
cleaved caspase 3 levels in retinal lysates (cleaved caspase 3): reduced following treatment
concentration in the vitreous humor within 1 hour [2]: approximately 8 ug/ml
time by which all detectable levels in the vitreous humor are gone [2]: ≤ 2 h
time of peak concentration in the vitreous humor [2]: < 1 h
ratio of phosphorylated Akt to total Akt (Akt (Ser 473)): maintained the ratio of phosphorylated Akt at levels similar to control values

— patent US20120329879A1, “BETA-ADRENERGIC RECEPTOR AGONISTS AND USES THEREOF” (THE UNIVERSITY OF TENNESSEE RESEARCH FOUNDATION, priority 2010, published 2012)
